In patent US8859615B2, “Compounds, compositions and methods for reducing toxicity and treating or preventing diseases” (priority 2008, dated 2014):
Read-outs that look alike come from different tables or passages of the source.

Experiments:
[1] = tested on: CCRF-CEM human T-cell acute lymphoblastic leukemia cells; assay: In vitro cytotoxicity against CCRF-CEM (XTT / CCK-8 tetrazolium assay, 72 hr); conditions: for IC50: Homo sapiens, CCRF-CEM
Description: (§1) The cytotoxicity IC50 of each compound was measured with the XTT assay using the 2,3-bis(2-methoxy-4-nitro-5-sulfophenyl)-5-[(phenylamino)carbonyl]-2H-tetrazolium hydroxide (XTT) microculture method as described in Scudiero et al., Cancer Res., 48:4827 (1988), the contents of which are hereby incorporated by reference in their entirety. The CCK-8 assay is a cell counting kit-8 (CCK-8) tetrazolium assay using a 96-well microplate (Dojindo Molecular Technologies, Inc., Rockville, Md.) (M. Ishiyama et al., Biol. Pharm. Bull. 19: 1518, 1996). Absorbance was measured by Powerwave a XS microplate spectrophotometer. This method described is considered a general method in vitro cytotoxicity studies.
(§2) The data in Tables 2X, 3A-E, 4, 5, and 6 were obtained using the cell counting kit-8 (CCK-8) tetrazolium assay in a 96-well microplate. Five to seven concentrations of each compound in triplicate were used, and the IC50 values were determined by CompuSyn software automation (Chou T C. and Martin N. ComboSyn, Inc., 2006) based on the median-effect equation and plot (Chou T C. J. Theor. Biol. 59:235-276, 1976; Chou T C. Pharmacol. Rev. 58: 621-681, 2006). […] The r value defines the correlation coefficient of the median-effect plot which signifies the conformity to the mass-action law principle (Chou T C. J. Theor. Biol. 59:235-276, 1976; Chou T C. Pharmacol. Rev. 58:621-681, 2006). These parameters were determined by CompuSyn simulation (available at http://www.combosyn.com).
(§3) CCRF-CEM human T-cell acute lymphoblastic leukemia cells and the corresponding vinblastine-resistant cells (CCRF-CEM/VBL100) were cultured at an initial density of 5×10^4 cells per milliliter. The cultured cells were maintained in a 5% CO2-humidified atmosphere at 37° C. in RPMI medium 1640 (GIBCO/BRL) containing penicillin (100 units/mL), streptomycin (100 μg/mL, GIBCO/BRL), and 10% heat-inactivated fetal bovine serum. The cytotoxicity of each Compound of the invention was measured using the 2,3-bis(2-methoxy-4-nitro-5-sulfophenyl)-5-[(phenylamino)carbonyl]-2H-tetrazolium hydroxide (XTT) microculture method as described in Scudiero et al., Cancer Res., 48:4827 (1988), the contents of which are hereby incorporated by reference in their entirety.
(§4) Absorbance was measured by Powerwave XS microplate spectrophotometer.

[2] = tested on: leukemic CCRF CEM cells; assay: Precursor incorporation into DNA, RNA and protein (Table 9); format: cell-based, human
Description: The radioactive tracer studies were carried out as described by Chou T C, et al. Cancer Res. 43: 3074-3079, 1983.

[3] = tested on: human lymphoblastic leukemic T-cell growth; assay: Cytotoxic activity relative to stability during storage at −20° C. in DMSO (Table 10); format: cell-based; conditions: Homo sapiens, CCRF-CEM, 72 h, XTT, 72 hr
Text: Without wishing to be bound by theory, the oxidized versions may be active metabolites. This theory provides an explanation of the delayed onset of therapeutic effects seen in the figures herein. The oxidized compounds may be active agents that are formed slowly upon metabolic oxidation. […] The active metabolites may explain the biphasic pharmacological properties of panaxytriol or Compound D that have been observed (FIGS. 9B, C, D; FIGS. 11D, E, F, and FIGS. 12D, E). […] Induction of the phase 2 enzymes may slow oxidation of the compounds (Ng et al., Tetrahedron Letters. 49: 7178-7179 (2008)).

[4] = tested on: CCRF-CEM/VBL100 vinblastine-resistant cells; assay: In vitro cytotoxicity against vinblastine-resistant CCRF-CEM subline; format: cell-based, human; conditions: for IC50: Homo sapiens, CCRF-CEM; for fold resistance in brackets (IC50 CCRF-CEM/VBL vs CCRF-CEM): Table 3
Description: as §1, §2, §3, §4

[5] = tested on: CCRF-CEM subline resistant to TAXOL; assay: In vitro cytotoxicity against TAXOL-resistant CCRF-CEM subline; format: cell-based, human; conditions: for IC50: Homo sapiens, CCRF-CEM
Description: as §2, §4

[6] = tested on: human mammary carcinoma MX-1 cells; assay: In vitro drug combination (median-effect / combination index, DRI) against MX-1 cell growth (Tables 5, 5A); format: cell-based; conditions: for IC50: MX-1, 72 hrs
Description: as §2
Efficacy of panaxytriol in combination with Fludelone (an illustrative tubulin-binding anticancer agent) was measured according to procedures described in more detail by Chou et al. (1984) Adv. Enz. Regul., 22:27-55, Chou et al. (1994) Nat'l Cancer Inst., 86:1517-1524, and Chou (2006) Pharmacological Reviews, […]:621-681. Software packages used for data analyses were CalcuSyn for Windows (Chou and Hayball., Multiple-drug dose effect analyzer and manual, Biosoft, Cambridge Place, Cambridge, U.K (1996)) and CompuSyn for Drug Combinations (Chou and Martin, Software for determination of synergism and antagonism and determination of IC50, ED50 and LD50, ComboSyn Inc., Paramus, N.J. (2005)). The entire contents of each of the above references are incorporated by reference in their entireties. […] DRI quantitates synergy as how many fold less of a dose is required to obtain a given level of effect for a combination of drugs versus the same effect for an individual component of the combination.

[7] = 72 h, read-out: IC50 CCRF-CEM, Table 3D, CCK-8, 72-hr incubation
[8] = read-out: IC50 (in μM), cytotoxic potency against cancer cell line growth in vitro, Table 3C, cell line not given
[9] = Table 3D, CCK-8, 72-hr incubation, read-out: IC50 CCRF-CEM/TAXOL
[10] = 72 h, Table 3D, CCK-8, 72-hr incubation, read-out: IC50 CCRF-CEM/Vinblastine
[11] = read-out: IC50 CCRF-CEM, Table 3E
[12] = Table 3E, read-out: IC50 CCRF-CEM/TAXOL
[13] = Table 3E, read-out: IC50 CCRF-CEM/Vinblastine
[14] = Table 5, fold dose reduction allowed in the Panaxytriol + Fludelone combination

SMILES: C=CC(=O)C#CC#CC[C@@H](O)[C@H](O)CCCCCCC [Compound (B)]
- IC50 ([1]; 72 h, read-out: IC50 CCRF-CEM, Table 3, XTT, 72-hour): 4.49 ± 0.41 µM
- [3H]-AdR → RNA (% Activation ↑ or Inhibition ↓) ([2]; 15 μM, 15 min, ↑ (activation)): 30.7 ↑ %
- [3H]-dThd → DNA (% Activation ↑ or Inhibition ↓) ([2]; 15 μM, 15 min, ↑ (activation)): 26.1 ↑ %
- [3H]-AdR → RNA (% Activation ↑ or Inhibition ↓) ([2]; 100 μM, 60 min, ↓ (inhibition)): 82.0 ↓ %
- [3H]-dThd → DNA (% Activation ↑ or Inhibition ↓) ([2]; 100 μM, 60 min, ↓ (inhibition)): 78.2 ↓ %
- inhibition at 15 µM ([2]; Homo sapiens, CCRF-CEM, 15 μM, 15 min, ↓ (inhibition), read-out: [3H] Leu → Protein (% Activation ↑ or Inhibition ↓)): 62.8%
- inhibition at 100 µM ([2]; Homo sapiens, CCRF-CEM, 100 μM, 60 min, ↓ (inhibition), read-out: [3H] Leu → Protein (% Activation ↑ or Inhibition ↓)): 78.2%
- IC50 ([3]; read-out: IC50 in μM CCRF-CEM, Table 10, Aug. 22, 2003 (Stored), same solution kept at −20° C. in DMSO): 4.78 µM
- IC50 ([3]; read-out: IC50 in μM CCRF-CEM, Table 10, Jul. 25, 2003 (Fresh)): 0.72 ± 0.14 µM
- IC50 ([3]; read-out: IC50 in μM CCRF-CEM/VBL, Table 10, Aug. 22, 2003 (Stored), same solution kept at −20° C. in DMSO): 5.29 µM
- IC50 ([3]; read-out: IC50 in μM CCRF-CEM/VBL, Table 10, Jul. 25, 2003 (Fresh)): 0.95 µM
- IC50 ([4]; 72 h, read-out: IC50 CCRF ± CEM/VBL): 6.29 ± 1.41 µM
- fold resistance in brackets (IC50 CCRF-CEM/VBL vs CCRF-CEM) [4]: 1.40 x

SMILES: C=CC(=O)C#CC#CC[C@H]1OC(C)(C)O[C@@H]1CCCCCCC [Compound (C)]
- IC50 ([3]; Table 10, Aug. 22, 2003 (Stored), same solution kept at −20° C. in DMSO, read-out: IC50 in μM CCRF-CEM): 2.68 µM
- IC50 ([3]; Table 10, Aug. 22, 2003 (Stored), same solution kept at −20° C. in DMSO, read-out: IC50 in μM CCRF-CEM/VBL): 3.9 µM
- IC50 ([3]; Table 10, Jul. 25, 2003 (Fresh), read-out: IC50 in μM CCRF-CEM): 0.404 µM
- IC50 ([3]; Table 10, Jul. 25, 2003 (Fresh), read-out: IC50 in μM CCRF-CEM/VBL): 0.7 µM
- fold resistance in brackets (IC50 CCRF-CEM/VBL vs CCRF-CEM) [4]: 1.19 x

SMILES: C=C[C@H](C#CC#CC[C@H]1OC(C)(C)O[C@@H]1CCCCCCC)OC(=O)/C=C/c1ccccc1 [Compound (E)]
- anti-cancer activity in the in vitro cytotoxicity assay [1]: active against cancer
- IC50 [1, 7]: 642 µM
- IC50 [1, 8]: 642 µM
- IC50 [5, 9]: 156 µM
- fold of cross-resistance (CCRF-CEM/TAXOL vs parent cell line) ([5]; Table 3D, given as x or -fold): 0.24 fold
- IC50 [4, 10]: 106 µM
- fold of cross-resistance (CCRF-CEM/Vinblastine vs parent cell line) ([4]; Table 3D, given as x or -fold): 0.17 fold

SMILES: C=C[C@H](C#CC#CC[C@H]1OC(C)(C)O[C@@H]1CCCCCCC)OC(C)=O [Compound (F)]
- IC50 [1, 7]: 3.88 ± 0.85 µM
- IC50 [1, 8]: 3.88 µM
- IC50 [5, 9]: 7.58 µM
- IC50 [4, 10]: 8.56 µM

SMILES: C=CC(C)(O)C#CC#CC[C@H]1OC(C)(C)O[C@@H]1CCCCCCC (some centres unmarked) [Compound (G)]
- IC50 [1, 7]: 3.77 ± 0.48 µM
- IC50 [1, 8]: 3.77 µM
- IC50 [5, 9]: 6.16 µM
- IC50 [4, 10]: 7.3 µM

SMILES: C=C[C@H](C#CC#CC[C@H]1OC(C)(C)O[C@@H]1CCCCCCC)OC [Compound (H)]
- IC50 [1, 7]: 21.6 µM
- IC50 [1, 8]: 21.6 µM
- IC50 [5, 9]: 15.1 µM
- IC50 [4, 10]: 26.6 µM

SMILES: CCCCCCC[C@H]1OC(C)(C)O[C@@H]1CC#CC#C/C=C/CO [Compound (L)]
- IC50 [1, 7]: 1.92 ± 0.16 µM
- IC50 [1, 8]: 1.92 µM
- IC50 [5, 9]: 2.91 µM
- IC50 [4, 10]: 2.76 µM

SMILES: CCCCCCC[C@H]1OC(C)(C)O[C@@H]1Cc1ccc(C=O)cc1 [Compound (N), 4-(((4R,5R)-5-heptyl-2,2-dimethyl-1,3-dioxolan-4-yl)methyl)benzaldehyde]
- IC50 [1, 11]: 12.6 µM
- IC50 [5, 12]: 19.4 µM
- IC50 [4, 13]: 13.6 µM

SMILES: C=CC(O)c1ccc(C[C@H]2OC(C)(C)O[C@@H]2CCCCCCC)cc1 (stereo partly drawn) [Compound (O), 1-(4-(((4R,5R)-5-heptyl-2,2-dimethyl-1,3-dioxolan-4-yl)methyl)phenyl)prop-2-en-1-ol]
- IC50 [1, 11]: 5.25 µM
- IC50 [5, 12]: 10.3 µM
- IC50 [4, 13]: 6.52 µM

SMILES: CCCCCCC[C@H]1OC(C)(C)O[C@@H]1Cc1ccc(C(O)CC)cc1 (stereo partly drawn) [Compound (P), 1-(4-(((4R,5R)-5-heptyl-2,2-dimethyl-1,3-dioxolan-4-yl)methyl)phenyl)propan-1-ol]
- IC50 [1, 11]: 4.18 µM
- IC50 [5, 12]: 11.9 µM
- IC50 [4, 13]: 5.14 µM

SMILES: C/C(=C\c1csc(C)n1)[C@@H]1C/C=C(/C(F)(F)F)C/C=C/[C@H](C)[C@H](O)[C@@H](C)C(=O)C(C)(C)[C@@H](O)CC(=O)O1 [Fludelone]
- IC50 ([6]; Table 5, Panaxytriol + Fludelone combination (1.199 + 0.0012), read-out: Dose-effect parameter Dm (IC50) of the component in the combination): 0.0012 µM
- IC50 ([6]; Table 5, each drug alone, read-out: Dose-effect parameter Dm (IC50)): 0.0027 µM
- Dose-Reduction Index (DRI) at IC50 [6, 14]: 2.27
- Dose-Reduction Index (DRI) at IC75 [6, 14]: 7.02
- Dose-Reduction Index (DRI) at IC90 [6, 14]: 21.69
- Dose-Reduction Index (DRI) at IC95 [6, 14]: 46.73
- dose-reduction index (DRI) ([6]; panaxytriol + Fludelone combination, MX-1 cells): 2.27-46.73

SMILES: CC[C@]1(O)C[C@@H]2CN(CCc3c([nH]c4ccccc34)[C@@](C(=O)OC)(c3cc4c(cc3OC)N(C)[C@H]3[C@@](O)(C(=O)OC)[C@H](OC(C)=O)[C@]5(CC)C=CCN6CC[C@]43[C@@H]65)C2)C1 [Vinblastine]
- IC50 ([1]; 72 h, read-out: CCRF-CEM (IC50 in μM), Table 3A-2, CCK-8, 72-hr exposure): 0.0011 µM
- IC50 ([5]; Table 3A-2, CCK-8, 72-hr exposure, read-out: CCRF-CEM/TAXOL (IC50 in μM)): 0.282 µM
- Fold of resistance (IC50 ratio CCRF-CEM/TAXOL vs CCRF-CEM) ([5]; Table 3A-2): 256 fold
- IC50 ([4]; 72 h, Table 3A-2, CCK-8, 72-hr exposure, read-out: CCRF-CEM/VBL (IC50 in μM)): 0.669 µM
- Fold of resistance (IC50 ratio CCRF-CEM/VBL vs CCRF-CEM) ([4]; Table 3A-2): 608 fold
